Calls of active or inactive are those of the source. The calls are words filed in the database; no cut-off is given here.
Assays:
MCF7 [1] = experiment: Antiproliferative activity against human MCF7 cells assessed as reduction in cell viability at 5 to 100 uM incubated for 120 hrs by MTT assay relative to fulvestrant/elacestrant; type: functional, cell-based; settings: dose 5-100 µM
MCF7 [2] = experiment: Inhibition of ERE signaling in human MCF7 cells transfected with 3X ERE TATA luciferase plasmid assessed as estrogen response element transcription at 10 uM incubated for 24 hrs by luminescence based analysis relative to elacestrant; type: functional, cell-based
[3] = target: T1, Estrogen receptor (Homo sapiens) (UniProt P03372); experiment: Induction of selective estrogen receptor degradation (SERD) in human T47D cells at 5 uM incubated for 24 hrs by Western blot analysis; type: cell-based
T1 sequence (whole entry): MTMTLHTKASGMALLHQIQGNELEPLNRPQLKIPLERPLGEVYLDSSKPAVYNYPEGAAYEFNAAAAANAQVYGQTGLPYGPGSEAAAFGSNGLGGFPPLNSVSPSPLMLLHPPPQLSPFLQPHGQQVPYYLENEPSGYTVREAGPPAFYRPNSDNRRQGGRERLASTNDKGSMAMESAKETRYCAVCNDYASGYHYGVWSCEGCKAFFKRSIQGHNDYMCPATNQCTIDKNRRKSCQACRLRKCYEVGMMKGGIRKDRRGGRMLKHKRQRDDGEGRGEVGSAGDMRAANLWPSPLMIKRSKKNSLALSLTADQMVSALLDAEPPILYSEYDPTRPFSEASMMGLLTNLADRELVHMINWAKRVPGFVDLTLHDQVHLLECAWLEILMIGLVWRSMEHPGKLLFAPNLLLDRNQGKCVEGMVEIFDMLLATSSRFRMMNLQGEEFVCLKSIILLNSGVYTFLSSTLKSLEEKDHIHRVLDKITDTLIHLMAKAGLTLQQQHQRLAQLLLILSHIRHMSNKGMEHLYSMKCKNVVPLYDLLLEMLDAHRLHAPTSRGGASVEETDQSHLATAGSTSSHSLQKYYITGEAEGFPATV

[4] = target: T1, Estrogen receptor (Homo sapiens); experiment: Induction of selective estrogen receptor degradation (SERD) in human MCF7 cells assessed as decrease in TFF1 mRNA expression level at 1 uM incubated for 24 hrs by RT-qPCR analysis; type: cell-based
T47D = experiment: Antiproliferative activity against human T47D cells assessed as reduction in cell viability at 1 to 10 uM incubated for 120 hrs by MTT assay; type: functional, cell-based; settings: dose 1-10 µM
[5] = target: T1, Estrogen receptor (Homo sapiens); experiment: Induction of selective estrogen receptor degradation (SERD) in human MCF7 cells assessed as decrease in TFF1 mRNA expression level at 1 to 10 uM incubated for 24 hrs in presence of E2 (estrogen) by RT-qPCR analysis; type: cell-based; settings: dose 1-10 µM
[6] = target: T1, Estrogen receptor (Homo sapiens); experiment: Induction of selective estrogen receptor degradation (SERD) in human MCF7 cells assessed as decrease in CCND1 mRNA expression level at 1 to 10 uM incubated for 24 hrs in presence of E2 (estrogen) by RT-qPCR analysis; type: cell-based; settings: dose 1-10 µM
[7] = target: T1, Estrogen receptor (Homo sapiens); experiment: Induction of selective estrogen receptor degradation (SERD) in human MCF7 cells at 5 uM incubated for 24 hrs by Western blot analysis; type: cell-based
[8] = target: T1, Estrogen receptor (Homo sapiens); experiment: Induction of selective estrogen receptor degradation (SERD) in human MCF7 cells assessed as decrease in CCND1 mRNA expression level at 1 uM incubated for 24 hrs by RT-qPCR analysis; type: cell-based
[9] = target: T1, Estrogen receptor (Homo sapiens); experiment: Induction of selective estrogen receptor degradation (SERD) in human MCF7 cells assessed as decrease in TFF1 mRNA expression level incubated for 24 hrs in presence of E2 (estrogen) by RT-qPCR analysis; type: cell-based
[10] = target: T1, Estrogen receptor (Homo sapiens); experiment: Induction of selective estrogen receptor degradation (SERD) in human MCF7 cells assessed as decrease in GREB1 mRNA expression level incubated for 24 hrs in presence of E2 (estrogen) by RT-qPCR analysis; type: cell-based

Row | SMILES | Activity (MCF7 [1]) | also measured
1 | CCN(Cc1ccc(OCCN2CCCCCC2)cc1)c1cc(C)ccc1N1CCc2cc(O)ccc2C1 | inactive | –
2 | CCN(Cc1ccc(OCCN2CCCC2)cc1)c1cc(C(F)(F)F)ccc1N1CCc2cc(O)ccc2C1 | inactive | –
3 | CCN(Cc1ccc(OCCN2CCCCCC2)cc1)c1ccccc1N1CCc2cc(O)ccc2C1 | inactive | –
4 | CCN(Cc1ccc(/C=C/C(=O)O)cc1)c1cc(C)ccc1N1CCc2cc(O)ccc2C1 | inactive | –
5 | CCN(C(=O)c1ccc(OCCN2CCCC2)cc1)c1cc(C(F)(F)F)ccc1N1CCc2cc(O)ccc2C1 | inactive | –
6 | CCN(Cc1ccc(OCCN2CCCC2)cc1)c1ccccc1N1CCc2cc(O)ccc2C1 | inactive | –
7 | CCN(Cc1ccc(/C=C/C(=O)O)cc1)c1ccccc1N1CCc2cc(O)ccc2C1 | inactive | –
8 | CCN(C(=O)c1ccc(OCCN2CCCC2)cc1)c1cc(F)ccc1N1CCc2cc(O)ccc2C1 | inactive | –
9 | CCN(C(=O)c1ccc(OCCN2CCCC2)cc1)c1cc(C)ccc1N1CCc2cc(O)ccc2C1 | inactive | –
10 | CCN(Cc1ccc(OCCN2CCCC2)cc1)c1cc(F)ccc1N1CCc2cc(O)ccc2C1 | inactive | –
11 | CCN(Cc1ccc(OCCN2CCCC2)cc1)c1cc(C)ccc1N1CCc2cc(O)ccc2C1 | inactive | –
12 | CCN(Cc1ccc(/C=C/C(=O)O)cc1)c1cc(F)ccc1N1CCc2cc(O)ccc2C1 | inactive | –
13 | CCN(C(=O)c1ccc(OCCN2CCCC2)cc1)c1ccccc1N1CCc2cc(O)ccc2C1 | inactive | –
14 | CCN(Cc1ccc(/C=C/C(=O)O)cc1)c1cc(C(F)(F)F)ccc1N1CCc2cc(O)ccc2C1 | inactive | inhibition (MCF7 [2]): inactive; Activity [3]: Active; Activity [4]: Active; Activity (T47D): inactive; Activity [5]: Active; Activity [6]: Active; Activity [7]: Active; Activity [8]: Active
15 | CCNCCc1ccc(CN(CC)c2cc(OC)ccc2[C@@H]2CCc3cc(O)ccc3C2)cc1 | – | Activity [9]: Active; Activity [10]: Active
16 | CCN(Cc1ccc(OCCN2CCCCCC2)cc1)c1cc(C(F)(F)F)ccc1N1CCc2cc(O)ccc2C1 | inactive | –
17 | CCN(Cc1ccc(OCCN2CCCCCC2)cc1)c1cc(F)ccc1N1CCc2cc(O)ccc2C1 | inactive | –
